Like-named read-outs stand apart in the source and are kept apart here.
Tests used:
Hepatitis B Virus = experiment: Anti-Hepatitis B Virus activity; type: cell-based
Experimental: Compounds were tested for anti-Hepatitis B Virus activity according to the method described by Jansen, R. et al., Antimicrobial Agents and Chemotherapy, Vol. 37, No. 3, pp. 441–447, 1993, and results are shown in the table below.

[1] = Acid stability, acid-mediated hydrolytic decomposition simulating stomach conditions (HPLC); type: physicochemical; settings: dilute hydrochloric acid pH 1, 37° C., initial 0.3 mg/ml
Experimental: Compounds according to the invention were tested for their stability towards acid-mediated hydrolytic decomposition employing a test designed to simulate stomach conditions. Each compound was incubated at an initial concentration of 0.3 mg/ml in dilute hydrochloric acid at pH 1 at 37° C. HPLC was run immediately for t=0 and at intervals up to approximately 24 hours.

[2] = type: in vitro ADME; settings: normal heparized human plasma, 37° C.
Experimental: Each compound was incubated in normal heparized human plasma at 37° C. At selected time points duplicate samples were removed and deproteinated by acetonitrile extraction. Drug concentrations were then determined by LC/MS/MS analysis using standard methods.

SMILES | IC50 (Hepatitis B Virus; Hepatitis B virus; read-out: IC50 (mM) vs. HBV) [nM] | Selectivity Index (Hepatitis B Virus; vs. HBV) | melting point [°C] | half-life, acid stability [1] [h] | Half-life [2] [h] | IC50 (Hepatitis B Virus; Hepatitis B virus, read-out: IC50 (mM) vs. HBV) [nM]
Nc1ncnc2c1ncn2[C@@H]1C=C[C@H](CO)C1 (relative stereo) [Example 1, (1R,cis)-4-(6-Amino-9H-purin-9-yl)-2-cyclopentene-1-methanol] | 980 | >200 | 195 to 200 | – | – | –
CCOC(=O)[C@H](Cc1ccccc1)NP(=O)(OC[C@H]1C=C[C@@H](n2cnc3c(N)ncnc32)C1)Oc1ccccc1 (relative stereo) [Example 7] | – | 5000 | – | 76 | 53 | –
Nc1ncnc2c1ncn2[C@@H]1C=C[C@H](COP(=O)([O-])N[C@@H](Cc2ccccc2)C(=O)[O-])C1.[Na+].[Na+] (relative stereo) [Example 8] | – | >1800 | – | – | – | –
COC(=O)C(C)(C)NP(=O)(OC[C@H]1C=C[C@@H](n2cnc3c(N)ncnc32)C1)Oc1ccccc1 (stereo partly drawn) [Example 9] | – | 5000 | – | – | – | 2

Source: US7115590B1 (University College Cardiff Consultants Limited, priority 1999, dated 2006)
